ChEMBL document CHEMBL1128565, “Aspartyl alpha-((diphenylphosphinyl)oxy)methyl ketones as novel inhibitors of interleukin-1 beta converting enzyme. Utility of the diphenylphosphinic acid leaving group for the inhibition of cysteine proteases” (J Med Chem, 1995)

What was measured:
Caspase-1 (Homo sapiens) = target: T1, Caspase-1 (Homo sapiens) (UniProt P29466); assay: Inhibition of interleukin-1-beta converting enzyme at pH 7.4, 37 degree C
T1 sequence (whole entry): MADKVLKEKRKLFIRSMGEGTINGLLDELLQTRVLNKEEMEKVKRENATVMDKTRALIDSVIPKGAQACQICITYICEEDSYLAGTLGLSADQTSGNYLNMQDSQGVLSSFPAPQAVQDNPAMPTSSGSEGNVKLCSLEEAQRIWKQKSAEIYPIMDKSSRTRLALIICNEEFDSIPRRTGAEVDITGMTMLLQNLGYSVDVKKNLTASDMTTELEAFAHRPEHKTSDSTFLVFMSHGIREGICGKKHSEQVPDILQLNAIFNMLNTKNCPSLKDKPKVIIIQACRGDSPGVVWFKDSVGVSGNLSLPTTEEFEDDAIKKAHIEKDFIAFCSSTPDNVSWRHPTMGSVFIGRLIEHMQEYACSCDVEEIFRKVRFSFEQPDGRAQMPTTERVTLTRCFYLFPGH

[1] = target: Cathepsin B (Homo sapiens) (UniProt P07858); assay: Inhibition of Cathepsin B at pH 6.5 and 25 degrees Centigrade.
[2] = target: T2, Calpain-1 catalytic subunit (Homo sapiens) (UniProt P07384); assay: Inhibition of Human erythrocyte calpain 1 using a continuous assay at pH 7.5 and 8 degrees Centigrade
T2 sequence (whole entry): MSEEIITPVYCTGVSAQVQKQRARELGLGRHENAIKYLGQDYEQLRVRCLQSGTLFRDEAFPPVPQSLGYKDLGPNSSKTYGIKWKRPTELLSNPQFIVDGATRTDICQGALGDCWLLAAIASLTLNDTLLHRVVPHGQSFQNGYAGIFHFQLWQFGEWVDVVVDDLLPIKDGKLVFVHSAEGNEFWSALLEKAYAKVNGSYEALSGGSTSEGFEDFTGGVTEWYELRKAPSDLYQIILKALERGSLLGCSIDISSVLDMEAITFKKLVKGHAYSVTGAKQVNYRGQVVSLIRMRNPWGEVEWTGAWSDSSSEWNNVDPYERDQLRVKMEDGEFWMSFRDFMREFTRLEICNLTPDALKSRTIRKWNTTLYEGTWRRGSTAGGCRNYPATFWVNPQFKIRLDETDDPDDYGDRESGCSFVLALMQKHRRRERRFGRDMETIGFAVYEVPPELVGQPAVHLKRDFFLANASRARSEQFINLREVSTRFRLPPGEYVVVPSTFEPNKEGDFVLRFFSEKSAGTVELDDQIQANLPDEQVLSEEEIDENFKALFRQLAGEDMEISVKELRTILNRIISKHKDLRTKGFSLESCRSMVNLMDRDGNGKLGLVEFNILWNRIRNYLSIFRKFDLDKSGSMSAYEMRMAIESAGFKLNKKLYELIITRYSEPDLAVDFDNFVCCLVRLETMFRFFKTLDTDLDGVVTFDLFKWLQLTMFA

[3] = target: Cathepsin B (Homo sapiens) (UniProt P07858); assay: Inhibition of Cathepsin B at pH 6.5 and 360000 (1/M 1/s) at 8 degrees Centigrade.
[4] = target: Cathepsin B (Homo sapiens) (UniProt P07858); assay: Inhibition of Cathepsin B at pH 6.5 and 250 (1/M 1/s) 8 degrees Centigrade.
[5] = target: T2, Calpain-1 catalytic subunit (Homo sapiens); assay: Inhibition of Human erythrocyte calpain 1 using a continuous assay at pH 7.5 and 8 degrees Centigrade.
[6] = target: Procathepsin L (Homo sapiens) (UniProt P07711); assay: Inhibitory activity against Cathepsin L at 8 degrees Centigrade.
Procathepsin L (Homo sapiens), sequence (P07711 114-333 limits assumed): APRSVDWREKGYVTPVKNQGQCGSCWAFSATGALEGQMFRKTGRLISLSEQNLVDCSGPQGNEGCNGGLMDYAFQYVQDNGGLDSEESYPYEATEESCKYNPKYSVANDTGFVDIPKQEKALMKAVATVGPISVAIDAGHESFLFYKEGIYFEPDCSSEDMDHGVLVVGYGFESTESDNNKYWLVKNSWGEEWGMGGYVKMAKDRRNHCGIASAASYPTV

[7] = target: Cathepsin B (Homo sapiens) (UniProt P07858); assay: Inhibition of Cathepsin B at 8 degrees Centigrade.

| Compound | K obs / 1 (Caspase-1 (Homo sapiens)) [M⁻¹ s⁻¹] | K obs / 1 [1] [M⁻¹ s⁻¹] | also measured |
| --- | --- | --- | --- |
| C[C@H](NC(=O)[C@@H](Cc1ccccc1)NC(=O)OCc1ccccc1)C(=O)COP(=O)(c1ccccc1)c1ccccc1 | < 500 | 400000 | – |
| CC(C)C[C@@H](NC(=O)OCc1ccccc1)C(=O)N[C@@H](Cc1ccccc1)C(=O)COC(=O)c1c(Cl)cccc1Cl | – | – | K obs / 1 [4]: < 1000 M⁻¹ s⁻¹; K obs / 1 [5]: 11400 M⁻¹ s⁻¹ |
| CC(C)C[C@@H](NC(=O)OCc1ccccc1)C(=O)N[C@@H](Cc1ccccc1)C(=O)COc1cc(C(F)(F)F)nn1-c1ccccc1 | – | < 500 | K obs / 1 [5]: < 500 M⁻¹ s⁻¹ |
| CC(C)C[C@@H](NC(=O)OCc1ccccc1)C(=O)N[C@@H](Cc1ccccc1)C(=O)COP(=O)(c1ccccc1)c1ccccc1 | < 500 | < 500 | K obs / 1 [2]: 10000 M⁻¹ s⁻¹ |
| O=C(O)C[C@H](NC(=O)OCc1ccccc1)C(=O)COP(=O)(c1ccccc1)c1ccccc1 | 11800 | – | – |
| CC(C)C[C@@H](NC(=O)[C@@H](C)NC(=O)OCc1ccccc1)C(=O)N[C@H](Cc1ccccc1)C(=O)COC(=O)c1c(F)cccc1F | – | – | K obs / 1 [2]: 31000 M⁻¹ s⁻¹; K obs / 1 [6]: 300 M⁻¹ s⁻¹; K obs / 1 [7]: 100 M⁻¹ s⁻¹ |
| CC(C)C[C@@H](NC(=O)[C@@H](C)NC(=O)OCc1ccccc1)C(=O)N[C@H](Cc1ccccc1)C(=O)COC(=O)c1c(F)ccc(OCCN2CCOCC2)c1F | – | – | K obs / 1 [2]: 32000 M⁻¹ s⁻¹; K obs / 1 [6]: 28000 M⁻¹ s⁻¹; K obs / 1 [7]: 400 M⁻¹ s⁻¹ |
| C[C@H](NC(=O)[C@@H](Cc1ccccc1)NC(=O)OCc1ccccc1)C(=O)COc1cc(C(F)(F)F)nn1-c1ccccc1 | < 500 | 2300 | K obs / 1 [5]: < 500 M⁻¹ s⁻¹ |

Further lines, with some results ahead:

| K obs / 1 (Caspase-1 (Homo sapiens)) [M⁻¹ s⁻¹] | K obs / 1 [1] [M⁻¹ s⁻¹] | Compound | also measured |
| --- | --- | --- | --- |
| 30000 | – | CC(C)[C@@H](NC(=O)OCc1ccccc1)C(=O)N[C@@H](CC(=O)O)C(=O)COC(=O)c1c(Cl)cccc1Cl | – |
| 50200 | < 500 | CC(C)[C@@H](NC(=O)OCc1ccccc1)C(=O)N[C@@H](CC(=O)O)C(=O)COP(=O)(c1ccccc1)c1ccccc1 | – |
| < 500 | – | C[C@H](NC(=O)[C@@H](Cc1ccccc1)NC(=O)OCc1ccccc1)C(=O)COC(=O)c1c(Cl)cccc1Cl | K obs / 1 [2]: 300 M⁻¹ s⁻¹; K obs / 1 [3]: 1.5e+06 M⁻¹ s⁻¹ |
| 20000 | < 500 | CC(C)[C@@H](NC(=O)OCc1ccccc1)C(=O)N[C@@H](CC(=O)O)C(=O)COc1cc(C(F)(F)F)nn1-c1ccccc1 | – |
| 230000 | – | CC(C)[C@H](NC(=O)OCc1ccccc1)C(=O)N[C@@H](C)C(=O)N[C@@H](CC(=O)O)C(=O)COP(=O)(c1ccc(Cl)cc1)c1ccc(Cl)cc1 | – |
| 77300 | – | CC(C)[C@@H](NC(=O)OCc1ccccc1)C(=O)N[C@@H](CC(=O)O)C(=O)COP(=O)(c1ccc(Cl)cc1)c1ccc(Cl)cc1 | – |
| < 500 | – | CC(C)[C@@H](NC(=O)OCc1ccccc1)C(=O)N[C@@H](CC(=O)O)C(=O)CO[PH](=O)c1ccccc1 (some centres not stated) | – |
| – | 1700 | CC(C)[C@H](NC(=O)OCc1ccccc1)C(=O)N[C@@H](C)C(=O)N[C@@H](CC(=O)O)C(=O)COP(=O)(c1ccccc1)c1ccccc1 | – |
| 12300 | – | CC(C)[C@@H](NC(=O)OCc1ccccc1)C(=O)N[C@@H](CC(=O)O)C(=O)COP(C)(C)=O | – |
